Data from patent publication US20260115209A1, “COMBINATION THERAPY INCLUDING COX-2 INHIBITOR FOR THE TREATMENT OF CANCER” (THE REGENTS OF THE UNIVERSITY OF CALIFORNIA, priority 2022, published 2026).

Assays:
Type in all cases: cell-based
SRC = test: High throughput kinase-activity mapping (HT-KAM) of treated cell extracts; conditions: WiDr cells treated 8 hours with vemurafenib ± gefitinib or cetuximab; FIG. 1B
Experimental: (§1) For samples to be analyzed with the HT-KAM platform, cells at ˜85% confluency were washed three times with cold PBS and lysed with freshly prepared 1× cell lysis buffer (1 ml per 2.5×10^6 cells) (lOX Cell Lysis Buffer, Cell Signaling; cat. #9803) complemented with 1× of Halt Protease & Phosphatase (100×, ThermoScientific; cat. #1861281). Cell lysates were collected and spun down at 14,000 rpm for 15 min at 4° C. and supernatants stored at −80° C. For samples to be analyzed by western blot, cell lysates were prepared with RIPA lysis buffer (150 mM NaCl, 0.1% SDS, 1% Nonidet P40, 1% sodium deoxycholate and 10 mM sodium phosphate, pH 7.2) supplemented with protease and phosphatase inhibitors. After clearing by centrifugation at 12,000 rpm for 10 minutes at 4° C., the lysates were analyzed as described in the respective experiments.
This high throughput kinase-activity mapping (HT-KAM) platform uses arrays of peptides that act as sensors of phosphorylation activity (7). The phospho-catalytic signature of samples is established from simultaneously occurring ATP-consumption tests measured in the presence of individual peptides that are experimentally isolated from each other. […] Luminescence is acquired using the Synergy 2 Multi-Mode Microplate Reader from BioTek. Luminescence data are inversely correlated with the amount of kinase activity. […]

LS411N = test: Cell viability assay (CellTiter-Glo), GI50, 3-day treatment; conditions: Homo sapiens, LS-411N, 72 h; LS411N (BRAF^V600E CRC); 50% growth inhibition after 3 days of treatment compared to control; read-out: GI50 concentrations
Experimental: To assess the growth/survival response of cell lines to single or combinatorial drug treatments, we used CellTiter-Glo cell viability assay (Promega; cat #G7571). Cell culture and luminescence readouts were performed in 96- and 384-well plates after 3-day treatments. GI50 corresponds to the concentration of a given drug that causes 50% inhibition of cell growth (GI50). The effects of drug combinations on cell growth were assessed by calculating fold change in VEM-sensitivity and combination index (C.I.) that were experimentally measured from ≥9 individual datapoints around drugs' GI50, i.e. at GI50, 0.5×GI50, 2×GI50 concentrations of each drug per drug combination experiment. To address the particular effects of some drug treatments on some cell lines, the choice of experimental datapoints centered around drugs' GI50 effects was adjusted by including individual datapoints ranging from ≥GI25 to ≤GI75, leading to calculate fold change in VEM-sensitivity and combination index (C.I.) from 12 to 20 individual datapoints, as previously explained (7).

SFK = test: Western blot of SFK activation (Y419 phosphorylation); conditions: BRAF^V600E CRC cell lines
Experimental: as §1
For western-blot, samples were denatured by boiling in 1× Laemmli buffer and run on an 8% SDS-PAGE gel. After transfer onto a PVDF membrane and blocking with 3% BSA, the membranes were incubated with primary antibodies overnight at 4° C., washed 3 times with TBST (Tris-buffered saline containing 0.05% Tween-20), incubated with secondary antibodies for 1 hour at room temperature and developed using chemoluminescence (cat #32209 from Pierce).
Antibodies anti-HSP90 was procured from Santa Cruz Biotechnologies (H-114, cat #7947). […]

In the case of `CCCS(=O)(=O)Nc1ccc(F)c(C(=O)c2c[nH]c3ncc(-c4ccc(Cl)cc4)cc23)c1F` [vemurafenib, N-[3-[5-(4-chlorophenyl)-1H-pyrrolo[2,3-b]pyridine-3-carbonyl]-2,4-difluorophenyl]propane-1-sulfonamide], the SRC kinase activity (SRC) is reported as “most significantly increased kinase activity”, the GI50 (LS411N) is reported as 1450 nM and the “SFK activation (phosphorylation of Y419)” value (SFK) is reported as “increased SFK activation”.
